The test system of assay [1] is MV4;11 cells. Nature of the assay: Cell viability assay (CellTiter-Glo) in MV4;11 cells, alone or with gilteritinib. To be noted: Homo sapiens, MV4;11 cells, CellTiter-Glo, read-out: MV4. It is filed as cell-based. In general terms: ATP-based viability assays read luminescence as a measure of living cells.
The test system of assay [2] is MOLM-13 cells. Kind of assay: Cell viability assay (CellTiter-Glo) in MOLM-13 cells, alone or with gilteritinib. It is filed as cell-based. As to conditions: Homo sapiens, MOLM-13 cells, CellTiter-Glo.
Setting [3] is: 72 h, compound alone (without gilteritinib), three days, 11 IC50.
Setting [4] is: 72 h, compound alone (without gilteritinib), three days, read-out: MOLM-13 IC50.
Setting [5] is: MV4-11, 72 h, compound alone (without gilteritinib), three days, 11 IC50.
[6] abbreviates: MV4-11, 72 h, with gilteritinib 10 nM, three days, 11 IC50 gilteritinib.
Setting [7] is: MOLM-13, 72 h, compound alone (without gilteritinib), three days, read-out: MOLM-13 IC50.
The mark [8] stands for this setting: MOLM-13, 72 h, with gilteritinib 20 nM, three days, read-out: MOLM-13 IC50 gilteritinib.
Setting [9] is: MV4-11, 72 h, compound with gilteritinib 10 nM, three days, 11 IC50 gilteritinib.
[10] abbreviates: MOLM-13, 72 h, compound with gilteritinib 20 nM, three days, read-out: MOLM-13 IC50 gilteritinib.

SMILES strings stand for the structures. Where two headings read alike, the source gives them in different places.

For the compound `O=C1CCC(N2C(=O)c3ccc(NCCNc4cccc(N5CCC(n6cc(-c7cnc8ccccc8n7)cn6)CC5)c4)cc3C2=O)C(=O)N1` (stereo not shown) [GS-351, 2-(2,6-Dioxopiperidin-3-yl)-5-((2-((3-(4-(4-(quinoxalin-2-yl)-1H-pyrazol-1-yl)piperidin-1-yl)phenyl)amino)ethyl)amino)isoindoline-1,3-dione], the IC50 in assay [1] (setting [3]) is 10 to 100 nM; in assay [1] (72 h, with gilteritinib 10 nM, three days, 11 IC50 gilteritinib), 10 to 100 nM; in assay [2] (setting [4]), 10 to 100 nM; in assay [2] (72 h, with gilteritinib 20 nM, three days, read-out: MOLM-13 IC50 gilteritinib), less than 10 nM.

Consider `O=C1CCC(N2C(=O)c3ccc(NCCNCC4CC4n4cc(-c5cnc6ccccc6n5)cn4)cc3C2=O)C(=O)N1` (stereo not shown) [GS-118, 2-(2,6-Dioxopiperidin-3-yl)-5-((2-(((2-(4-(quinoxalin-2-yl)-1H-pyrazol-1-yl)cyclopropyl)methyl)amino)ethyl)amino)isoindoline-1,3-dione], for which the IC50 in assay [1] (setting [5]) was greater than 1000 nM; in assay [1] (setting [6]) it was greater than 1000 nM; in assay [2] (setting [7]), 10 to 100 nM; in assay [2] (setting [8]), less than 10 nM.

Turning to `Cn1ncc2c(-c3cn([C@H]4C[C@H](CNc5ccc6c(c5)C(=O)N(C5CCC(=O)NC5=O)C6=O)C4)nc3C3CC3)nccc21` (stereo partly drawn) [GS-611, 5-(((trans-3-(3-Cyclopropyl-4-(1-methyl-1H-pyrazolo[4,3-c]pyridin-4-yl)-1H-pyrazol-1-yl)cyclobutyl)methyl)amino)-2-(2,6-dioxopiperidin-3-yl)isoindoline-1,3-dione], the IC50 in assay [1] (setting [5]), in assay [1] (setting [9]), in assay [2] (setting [7]) and in assay [2] (setting [10]) was less than 10 nM in each case.

For the compound `O=C1CCC(N2C(=O)c3ccc(NC[C@H]4C[C@H](n5cc(-c6cnc7ccc(CN8CCNCC8)cc7n6)c(C6CC6)n5)C4)cc3C2=O)C(=O)N1` (stereo partly drawn) [GS-068, 5-(((trans-3-(3-cyclopropyl-4-(7-(piperazin-1-ylmethyl)quinoxalin-2-yl)-1H-pyrazol-1-yl)cyclobutyl)methyl)amino)-2-(2,6-dioxopiperidin-3-yl)isoindoline-1,3-dione], the IC50 is 10 to 100 nM in assay [1] (setting [5]), less than 10 nM in assay [1] (setting [6]), greater than 1000 nM in assay [2] (setting [7]) and 10 to 100 nM in assay [2] (setting [8]).

On to `O=C1CCC(N2C(=O)c3ccc(NCCCCC(=O)N4CCC(n5cc(-c6cnc7ccc(N8CCNCC8)cc7n6)c(C6CC6)n5)CC4)cc3C2=O)C(=O)N1` (stereo not shown) [GS-211, 5-((5-(4-(3-Cyclopropyl-4-(7-(piperazin-1-yl)quinoxalin-2-yl)-1H-pyrazol-1-yl)piperidin-1-yl)-5-oxopentyl)amino)-2-(2,6-dioxopiperidin-3-yl)isoindoline-1,3-dione], for which the IC50 in assay [1] (setting [5]) is 10 to 100 nM; in assay [1] (setting [6]) it was less than 10 nM; in assay [2] (setting [7]) it was 10 to 100 nM; in assay [2] (setting [8]), less than 10 nM.

Take `O=C1CCC(N2C(=O)c3ccc(NCCCCCCn4cc(-c5cnc6ccc(N7CCOCC7)cc6n5)c(C5CC5)n4)cc3C2=O)C(=O)N1` (stereo not shown) [GS-569, 5-((6-(3-Cyclopropyl-4-(7-morpholinoquinoxalin-2-yl)-1H-pyrazol-1-yl)hexyl)amino)-2-(2,6-dioxopiperidin-3-yl)isoindoline-1,3-dione]: the IC50 in assay [1] (setting [5]), in assay [1] (setting [9]), in assay [2] (setting [7]) and in assay [2] (setting [10]) was less than 10 nM throughout.

For the compound `O=C1CCC(N2Cc3c(Nc4ccnc(NCCC(=O)N5CCC(n6cc(-c7cnc8ccccc8n7)cn6)CC5)n4)cccc3C2=O)C(=O)N1` (stereo not shown) [GS-085, 3-(1-Oxo-4-((2-((3-oxo-3-(4-(4-(quinoxalin-2-yl)-1H-pyrazol-1-yl)piperidin-1-yl)propyl)amino)pyrimidin-4-yl)amino)isoindolin-2-yl)piperidine-2,6-dione], the IC50 in assay [1] (setting [5]), in assay [1] (setting [6]), in assay [2] (setting [7]) and in assay [2] (setting [8]) was greater than 1000 nM throughout.

Turning to `O=C1CCC(N2C(=O)c3ccc(CCN4CC(n5cc(-c6cnc7ccccc7n6)c(C6CC6)n5)C4)cc3C2=O)C(=O)N1` (stereo not shown) [GS-469, 5-(2-(3-(3-cyclopropyl-4-(quinoxalin-2-yl)-1H-pyrazol-1-yl)azetidin-1-yl)ethyl)-2-(2,6-dioxopiperidin-3-yl)isoindoline-1,3-dione], the IC50 in assay [1] (setting [5]), in assay [1] (setting [9]), in assay [2] (setting [7]) and in assay [2] (setting [10]) was greater than 1000 nM throughout.

In the case of `O=C1CCC(N2C(=O)c3ccc(NCCCCCCn4cc(-c5nc6ccccc6nc5C(F)(F)F)cn4)cc3C2=O)C(=O)N1` (stereo not shown) [GS-522, 2-(2,6-Dioxopiperidin-3-yl)-5-((6-(4-(3-(trifluoromethyl)quinoxalin-2-yl)-1H-pyrazol-1-yl)hexyl)amino)isoindoline-1,3-dione], the IC50 in assay [1] (setting [5]) is 100 to 1000 nM; in assay [1] (setting [9]) it was 10 to 100 nM; in assay [2] (setting [7]) it was greater than 1000 nM; in assay [2] (setting [10]), less than 10 nM.

On to `CN1CCC(c2ccc3nc(-c4cnn([C@H]5C[C@@H](CCCNc6ccc7c(c6)C(=O)N(C6CCC(=O)NC6=O)C7=O)C5)c4)cnc3c2)CC1` (stereo partly drawn) [GS-432, 2-(2,6-dioxopiperidin-3-yl)-5-((3-(cis-3-(4-(6-(1-methylpiperidin-4-yl)quinoxalin-2-yl)-1H-pyrazol-1-yl)cyclobutyl)propyl)amino)isoindoline-1,3-dione], for which the IC50 was greater than 1000 nM in assay [1] (setting [5]), 10 to 100 nM in assay [1] (setting [9]), greater than 1000 nM in assay [2] (setting [7]) and 10 to 100 nM in assay [2] (setting [10]).

Regarding `COc1cccc2ncc(-c3cnn(CCCCCCNc4ccc5c(c4)C(=O)N(C4CCC(=O)NC4=O)C5=O)c3)nc12` (stereo not shown) [GS-391, 2-(2,6-Dioxopiperidin-3-yl)-5-((6-(4-(8-methoxyquinoxalin-2-yl)-1H-pyrazol-1-yl)hexyl)amino)isoindoline-1,3-dione], the IC50 was greater than 1000 nM in assay [1] (setting [5]), greater than 1000 nM in assay [1] (setting [6]), greater than 1000 nM in assay [2] (setting [7]) and 100 to 1000 nM in assay [2] (setting [8]).

For the compound `O=C1CCC(N2C(=O)c3ccc(NCCC[C@H]4C[C@H](n5cc(-c6cnc7ccc(N8CC9CCC(C8)N9)cc7n6)cn5)C4)cc3C2=O)C(=O)N1` (stereo partly drawn) [GS-215, 5-((3-(trans-3-(4-(7-(3,8-Diazabicyclo[3.2.1]octan-3-yl)quinoxalin-2-yl)-1H-pyrazol-1-yl)cyclobutyl)propyl)amino)-2-(2,6-dioxopiperidin-3-yl)isoindoline-1,3-dione], the IC50 was 100 to 1000 nM in assay [1] (setting [5]), 10 to 100 nM in assay [1] (setting [6]), 100 to 1000 nM in assay [2] (setting [7]) and less than 10 nM in assay [2] (setting [8]).

As to `CN1CCN(c2cnn(C3CCN(C(=O)CCCCCNc4ccc5c(c4)C(=O)N(C4CCC(=O)NC4=O)C5=O)CC3)c2)CC1` (stereo not shown) [GS-046, 2-(2,6-Dioxopiperidin-3-yl)-5-((6-(4-(4-(4-methylpiperazin-1-yl)-1H-pyrazol-1-yl)piperidin-1-yl)-6-oxohexyl)amino)isoindoline-1,3-dione], the IC50 in assay [1] (setting [5]) was greater than 1000 nM; in assay [1] (setting [6]) it was 10 to 100 nM; in assay [2] (setting [7]) it was 100 to 1000 nM; in assay [2] (setting [8]) it was 10 to 100 nM.

On to `O=C1CCC(N2C(=O)c3ccc(NCCCCCCn4cc(-c5nc6ccccc6nc5C(F)F)cn4)cc3C2=O)C(=O)N1` (stereo not shown) [GS-547, 5-((6-(4-(3-(Difluoromethyl)quinoxalin-2-yl)-1H-pyrazol-1-yl)hexyl)amino)-2-(2,6-dioxopiperidin-3-yl)isoindoline-1,3-dione], for which the IC50 in assay [1] (setting [3]) is 100 to 1000 nM; in assay [1] (72 h, compound with gilteritinib 10 nM, three days, 11 IC50 gilteritinib) it was 10 to 100 nM; in assay [2] (setting [4]), greater than 1000 nM; in assay [2] (72 h, compound with gilteritinib 20 nM, three days, read-out: MOLM-13 IC50 gilteritinib) it was 10 to 100 nM.

For the compound `O=C1CCC(N2C(=O)c3ccc(NC[C@H]4C[C@H](n5cc(-c6ccc(F)cn6)c(C6CC6)n5)C4)cc3C2=O)C(=O)N1` (stereo partly drawn) [GS-283, 5-(((trans-3-(3-Cyclopropyl-4-(5-fluoropyridin-2-yl)-1H-pyrazol-1-yl)cyclobutyl)methyl)amino)-2-(2,6-dioxopiperidin-3-yl)isoindoline-1,3-dione], the IC50 in assay [1] (setting [5]) was 100 to 1000 nM; in assay [1] (setting [6]) it was 10 to 100 nM; in assay [2] (setting [7]), greater than 1000 nM; in assay [2] (setting [8]) it was 10 to 100 nM.

Consider `O=C(CCCC(=O)N1CCC(n2cc(-c3cnc4cccc(Br)c4n3)cn2)CC1)NCc1ccc2c(c1)CN(C1CCC(=O)NC1=O)C2=O` (stereo not shown) [GS-021, 5-(4-(4-(8-Bromoquinoxalin-2-yl)-1H-pyrazol-1-yl)piperidin-1-yl)-N-((2-(2,6-dioxopiperidin-3-yl)-1-oxoisoindolin-5-yl)methyl)-5-oxopentanamide], for which the IC50 in assay [1] (MV4-11, 72 h, with 10 nM gilteritinib, 3 days, 11 IC50 gilteritinib) was 44 nM; in assay [1] (MV4-11, 72 h, without gilteritinib, 3 days, 11 IC50) it was 3130 nM; in assay [2] (MOLM-13, 72 h, with 20 nM gilteritinib, 3 days, read-out: MOLM-13 IC50 gilteritinib) it was 111 nM; in assay [2] (MOLM-13, 72 h, without gilteritinib, 3 days, read-out: MOLM-13 IC50) it was 82 nM.

For the origin of these results see patent US20240050428A1 (Cullgen (Shanghai), Inc., priority 2020, published 2024).
